In patent US20070066546A1, “Compositions for the reversible thioesterification of signaling proteins and methods of using same” (priority 2005, published 2007):

What was measured:
OxyR = OxyR (Escherichia coli, UniProt P0ACQ4); test: In vitro transcription and primer extension with avicin-modified OxyR (katG and oxyS templates); assay type: biochemical, E. coli; settings: for relative potency as activator of OxyR (in vitro transcriptional activity): comparison between F094, avicin D and avicin G; for OxyR activation as assessed by in vitro transcriptional activation of katG and oxyS: reduced OxyR, strictly anaerobic conditions, avicins:OxyR 1:10-100:1
OxyR, sequence (P0ACQ4 whole entry): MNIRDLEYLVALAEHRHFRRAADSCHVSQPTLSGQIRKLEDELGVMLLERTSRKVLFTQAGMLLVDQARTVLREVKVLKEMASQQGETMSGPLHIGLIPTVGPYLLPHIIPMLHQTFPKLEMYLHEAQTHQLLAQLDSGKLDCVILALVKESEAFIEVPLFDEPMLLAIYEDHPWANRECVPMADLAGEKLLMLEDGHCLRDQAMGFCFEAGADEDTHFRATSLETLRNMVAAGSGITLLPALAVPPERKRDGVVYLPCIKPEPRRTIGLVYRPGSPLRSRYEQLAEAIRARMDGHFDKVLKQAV
Method: Reduction of OxyR. The reduced form of OxyR was generated by addition of a large excess of DTT (200 mM) for 1 h, followed by exhaustive dialysis (25 mM potassium phosphate/250 mM potassiumsulfate/1 mM magnesium sulfate/100 μM DTPA, pH 8) in an anaerobic glove box. Removal of DTT was monitored by the color change after addition of 5,5′-dithionitrobenzoic acid to an aliquot of the dialysis buffer.
Treatment of OxyR with Avicins. Reduced OxyR was treated with a 10-fold molar excess of F094 or purified avicin D or G to generate avicin-modified OxyR. The reaction was performed under anaerobic conditions for 1 h, followed by dialysis.
In Vitro Transcription and Primer Extension. In vitro transcription with the various modified forms of OxyR was performed as described (Kim, S. O., et al. (2002) Cell 109, 383-396). Plasmid pBT22 was used as the katG template and pUCOXYS, a plasmid containing the oxyS-coding region cloned into pUC19, was used as the oxyS template. Where indicated, avicin-modified forms of OxyR were reduced with 200 mM DTT. Primer extension assays were performed by using AMV reverse transcriptase (Promega), according to instructions supplied by the manufacturer.
Avicin modified OxyR was incubated with plasmids containing the katG or oxyS genes followed by primer extension (see Materials and Methods). After primer extension, samples were untreated or treated with DTT before gel analysis. Band intensities were quantified (phosphoimager), and data are plotted at top as percent maximal activation (n=2-3). At bottom, corresponding raw data from an individual experiment are depicted.

[1] = tested on: E. coli strain RK4936 (wild-type); test: Hydroperoxidase I (HPI) assay in crude extracts of treated wild-type bacteria; assay type: cell-based; settings: wild-type cells, 100 μM, 60 min
Method: (§1) Hydroperoxidase I (HPI) Assay. The peroxidase activity of HPI was measured as described (Hausladen, A. et al. (1996) Cell 86, 719-729), in 50 mM potassium phosphate buffer (pH 7.5) containing 0.1 mM EDTA, 10 mM H2O2, and 0.2 mg/ml o-dianisidine, by measuring the increase in absorbance at 460 nm (Clairborne, A. & Fridovich, I. (1979) Biochemistry 18, 2324-2329). An extinction coefficient of 11.3 mM^−1 cm^−1 was used to calculate the specific activity of HPI ((1993) in Worthington Enzyme Manual: Peroxidase, ed. Worthington, V. (Worthington Biochemical Corporation, Freehold, N.J.)).
(§2) HPI, the enzyme encoded by the katG gene, protects bacterial cells against hydrogen peroxide-induced stress. E. coli strains RK4936 (wild-type) and TA4112 (OxyR-null) were grown aerobically to an A600 of 0.5 and then treated with 100 μM F094 or avicin D or G for 60 min. Cells were harvested by centrifugation, and the peroxidase activity in crude extracts was determined (see Materials and Methods). Wild-type (RK4936) and OxyR-null (TA4112) strains of bacteria were treated with avicins and assayed for HPI activity.

[2] = tested on: E. coli strain TA4112 (OxyR-null); test: Hydroperoxidase I (HPI) assay in crude extracts of treated OxyR-null bacteria; assay type: cell-based; settings: OxyR-null cells, 100 μM, 60 min
Method: as §1, §2

[3] = tested on: mouse embryonic fibroblast; settings: cited from earlier work

Compound	relative potency as activator of OxyR (in vitro transcriptional activity) (OxyR)	OxyR activation as assessed by in vitro transcriptional activation of katG and oxyS (OxyR)	HPI activity [1]	HPI activity [2]	decrease in cyclin D1 protein levels ([3]; NAC treatment)	increase in p27 protein levels ([3]; NAC treatment)	increase in intracellular low-molecular-weight thiols ([3]; treatment for 12 h)
C=C[C@](C)(O)CC/C=C(\CO)C(=O)O[C@H]1[C@H](O)[C@@H](O)[C@H](O[C@@](C)(C=C)CC/C=C(\CO)C(=O)O[C@H]2C[C@]3(C(=O)O[C@@H]4O[C@H](CO)[C@@H](O)[C@H](O)[C@H]4O[C@@H]4O[C@@H](C)[C@H](O[C@@H]5O[C@@H](CO)[C@H](O)[C@H]5O)[C@@H](O[C@@H]5O[C@H](CO)[C@@H](O)[C@H](O)[C@H]5O)[C@H]4O)[C@H](O)C[C@]4(C)C(=CC[C@@H]5[C@@]6(C)CC[C@H](O[C@@H]7O[C@H](CO[C@@H]8O[C@H](C)[C@H](O)[C@H](O)[C@H]8O[C@@H]8OC[C@@H](O)[C@H](O)[C@H]8O)[C@@H](O)[C@H](O)[C@H]7NC(C)=O)C(C)(C)[C@@H]6CC[C@]54C)[C@@H]3CC2(C)C)O[C@@H]1C [avicin D]	more potent activators than avicin G	resulted in OxyR activation	doubled HPI activity	no increase in activity			
CC(=O)N[C@@H](CS)C(=O)O [NAC, N-acetyl-L-cysteine]					70%	3-4 fold	6 fold
C=C[C@](C)(O)CC/C=C(\C)C(=O)O[C@H]1[C@H](O)[C@@H](O)[C@H](O[C@@](C)(C=C)CC/C=C(\CO)C(=O)O[C@H]2C[C@]3(C(=O)O[C@@H]4O[C@H](CO)[C@@H](O)[C@H](O)[C@H]4O[C@@H]4O[C@@H](C)[C@H](O[C@@H]5O[C@@H](CO)[C@H](O)[C@H]5O)[C@@H](O[C@@H]5O[C@H](CO)[C@@H](O)[C@H](O)[C@H]5O)[C@H]4O)[C@H](O)C[C@]4(C)C(=CC[C@@H]5[C@@]6(C)CC[C@H](O[C@@H]7O[C@H](CO[C@@H]8O[C@H](C)[C@H](O)[C@H](O)[C@H]8O[C@@H]8OC[C@@H](O)[C@H](O)[C@H]8O)[C@@H](O)[C@H](O)[C@H]7NC(C)=O)C(C)(C)[C@@H]6CC[C@]54C)[C@@H]3CC2(C)C)O[C@@H]1C [avicin G]	lower	resulted in OxyR activation	doubled HPI activity	no increase in activity			
